Reference: patent publication US20100227921A1, “AMINO ACID AND PEPTIDE CARBAMATE PRODRUGS OF […] USES THEREOF” (SHIRE LLC, priority 2009, published 2010)
Several values for one entry are separate records, joined by “and”; a condition that tells them apart may be missing. Equal values may be shown once. Read-outs that look alike come from different tables or passages of the source. Marks after values point to notes of the source that are not given here.

Assay: Comparative bioavailability after oral or intravenous administration to monkeys (plasma LC-MS-MS)
Type: in vivo, cynomolgus monkey
Details: for half-life: read-out: t½ of tapentadol valine carbamate (converted); for AUC(0-t): read-out: AUCt of tapentadol valine carbamate; for clearance: read-out: CL of tapentadol valine carbamate (converted); for Vd: read-out: Vss of tapentadol valine carbamate; for Tmax: cynomolgus
Method: Test substances i.e., tapentadol and tapentadol valine carbamate were administered (either intravenously or orally) to a group of five male cynomolgus monkeys in a three way crossover design. The oral doses were given at 1 mg tapentadol base equivalents/kg while the intravenous dose was 0.5 mg/kg
Blood samples were taken at various times after administration and submitted to analysis for the parent drug and tapentadol valine carbamate using a validated LC-MS-MS assay. Pharmacokinetic parameters derived from the plasma analytical data were determined using Win Nonlin.

[1] = male monkey, i.v. tapentadol valine carbamate 0.5 mg tapentadol free base equiv/kg, individual animals 1-5
[2] = male monkey, oral tapentadol valine carbamate 1 mg tapentadol free base equiv/kg, individual animals 1-5
[3] = male, cynomolgus monkey, plasma, iv, 0.5 mg/kg, male monkey, i.v. tapentadol valine carbamate 0.5 mg tapentadol free base equiv/kg, individual animals 1-5
[4] = male, cynomolgus monkey, plasma, iv, 0.5 mg/kg, male monkey, i.v. tapentadol valine carbamate 0.5 mg tapentadol free base equiv/kg, mean
[5] = male, cynomolgus monkey, plasma, po, 1 mg tapentadol free base equiv/kg, male monkey, oral tapentadol valine carbamate 1 mg tapentadol free base equiv/kg, individual animals 1-5
[6] = male, cynomolgus monkey, plasma, po, 1 mg tapentadol free base equiv/kg, male monkey, oral tapentadol valine carbamate 1 mg tapentadol free base equiv/kg, mean

With CC[C@H](c1cccc(OC(=O)N[C@H](C(=O)O)C(C)C)c1)[C@H](C)CN(C)C (racemic) [Tapentadol valine carbamate, 2-[3-(3-Dimethylamino-1-ethyl-2-methyl-propyl)-phenoxycarbonylamino]-3-methyl-butyric acid] the concentration at 6 h (cynomolgus monkey, plasma, iv, male monkey, i.v. tapentadol valine carbamate 0.5 mg tapentadol free base equiv/kg, 6 h, individual animals 1-5) was 3.21 ng/mL, the “Plasma concentration of tapentadol valine carbamate” value (“Plasma concentration” for short) (male monkey, i.v. tapentadol valine carbamate 0.5 mg tapentadol free base equiv/kg, 0 h, individual animals 1-5) was “BLQ (BLQ Values less than LOQ (<0.5 ng/mL))” and the “Plasma concentration” value (male monkey, i.v. tapentadol valine carbamate 0.5 mg tapentadol free base equiv/kg, 0.083 h, individual animals 1-5) was 951 ng/mL and 914 ng/mL and 1166 ng/mL and 1024 ng/mL. The “Plasma concentration” value (male monkey, i.v. tapentadol valine carbamate 0.5 mg tapentadol free base equiv/kg, 0.25 h, individual animals 1-5) was 825 ng/mL and 848 ng/mL and 427 ng/mL and 672 ng/mL, the “Plasma concentration” value (male monkey, i.v. tapentadol valine carbamate 0.5 mg tapentadol free base equiv/kg, 0.5 h, individual animals 1-5) was 119.8 ng/mL and 576 ng/mL and 620 ng/mL and 609 ng/mL and 430 ng/mL and the “Plasma concentration” value (male monkey, i.v. tapentadol valine carbamate 0.5 mg tapentadol free base equiv/kg, 1 h, individual animals 1-5) was 205 ng/mL and 326 ng/mL and 274 ng/mL and 251 ng/mL. For the same compound, the “Plasma concentration” value (male monkey, i.v. tapentadol valine carbamate 0.5 mg tapentadol free base equiv/kg, 2 h, individual animals 1-5) was 112.1 ng/mL and 115.5 ng/mL and 85.6 ng/mL and 87.7 ng/mL, the “Plasma concentration” value (male monkey, i.v. tapentadol valine carbamate 0.5 mg tapentadol free base equiv/kg, 4 h, individual animals 1-5) was 20.0 ng/mL and 21.4 ng/mL and 12.2 ng/mL and 14.6 ng/mL and the “Plasma concentration” value (male monkey, i.v. tapentadol valine carbamate 0.5 mg tapentadol free base equiv/kg, 6 h, individual animals 1-5) was 4.94 ng/mL and 6.10 ng/mL and 3.48 ng/mL and 4.20 ng/mL. The “Plasma concentration” value (male monkey, i.v. tapentadol valine carbamate 0.5 mg tapentadol free base equiv/kg, 9 h, individual animals 1-5) was 1.04 ng/mL and 0.769 ng/mL and 1.89 ng/mL and 1.20 ng/mL and 1.35 ng/mL, the “AUC of tapentadol valine carbamate” value [1] was 926 ng·h/mL and 1050 ng·h/mL and 915 ng·h/mL and 846 ng·h/mL and the “AUCt of tapentadol valine carbamate” value [1] was 925 ng·h/mL and 1040 ng·h/mL and 912 ng·h/mL and 843 ng·h/mL. For the same compound, the “C0 of tapentadol valine carbamate” value [1] was 794 ng/mL and 1020 ng/mL and 949 ng/mL and 1930 ng/mL and 1260 ng/mL, the “CL of tapentadol valine carbamate” value [1] was 9 mL/min/kg and 7.97 mL/min/kg and 9.12 mL/min/kg and 8.18 mL/min/kg and the “Vss of tapentadol valine carbamate” value [1] was 0.529 L/kg and 0.499 L/kg and 0.481 L/kg and 0.562 L/kg. For the same compound, the “t½ of tapentadol valine carbamate” value [1] was 1.1 h, the “AUC of tapentadol valine carbamate” value [2] was 219 ng·h/mL and 367 ng·h/mL and 368 ng·h/mL and 48 ng·h/mL and 436 ng·h/mL and the “AUCt of tapentadol valine carbamate” value [2] was 216 ng·h/mL and 351 ng·h/mL and 358 ng·h/mL and 187 ng·h/mL and 432 ng·h/mL. For the same compound, the “Cmax of tapentadol valine carbamate” value [2] was 150 ng/mL and 176 ng/mL and 153 ng/mL and 92.1 ng/mL and 249 ng/mL, the “T>50%Cmax of tapentadol valine carbamate” value [2] was 0.5 h (4×) and 1 h and the “t½ of tapentadol valine carbamate” value [2] was 3.35 h and 2.48 h and 1.86 h and 2.88 h. The “T>50%Cmax of tapentadol valine carbamate” value (male monkey, oral tapentadol valine carbamate 1 mg tapentadol free base equiv/kg, median) was 0.5^a h, the “Plasma concentration” value (male monkey, oral tapentadol valine carbamate 10 mg tapentadol free base equiv/kg, 0.5 h, individual animals 1-5) was 150 ng/mL and 176 ng/mL and 153 ng/mL and 34.7 ng/mL and 249 ng/mL and the “Plasma concentration” value (male monkey, oral tapentadol valine carbamate 10 mg tapentadol free base equiv/kg, 0.5 h, mean) was 153 ng/mL. For the same compound, the “Plasma concentration” value (male monkey, oral tapentadol valine carbamate 10 mg tapentadol free base equiv/kg, 1 h, individual animals 1-5) was 96.1 ng/mL and 126 ng/mL and 127 ng/mL and 92.1 ng/mL and 227 ng/mL, the “Plasma concentration” value (male monkey, oral tapentadol valine carbamate 10 mg tapentadol free base equiv/kg, 1 h, mean) was 134 ng/mL and the “Plasma concentration” value (male monkey, oral tapentadol valine carbamate 10 mg tapentadol free base equiv/kg, 2 h, individual animals 1-5) was 31.8 ng/mL and 71.3 ng/mL and 58.9 ng/mL and 49.4 ng/mL and 87.9 ng/mL. For the same compound, the “Plasma concentration” value (male monkey, oral tapentadol valine carbamate 10 mg tapentadol free base equiv/kg, 2 h, mean) was 59.9 ng/mL, the “Plasma concentration” value (male monkey, oral tapentadol valine carbamate 10 mg tapentadol free base equiv/kg, 3 h, individual animals 1-5) was 10.7 ng/mL and 23.1 ng/mL and 25.2 ng/mL and 16.4 ng/mL and 22.1 ng/mL and the “Plasma concentration” value (male monkey, oral tapentadol valine carbamate 10 mg tapentadol free base equiv/kg, 3 h, mean) was 19.5 ng/mL. The “Plasma concentration” value (male monkey, oral tapentadol valine carbamate 10 mg tapentadol free base equiv/kg, 4 h, individual animals 1-5) was 5.49 ng/mL and 15.1 ng/mL and 25.7 ng/mL and 12.7 ng/mL and 6.89 ng/mL, the “Plasma concentration” value (male monkey, oral tapentadol valine carbamate 10 mg tapentadol free base equiv/kg, 4 h, mean) was 13.2 ng/mL and the “Plasma concentration” value (male monkey, oral tapentadol valine carbamate 10 mg tapentadol free base equiv/kg, 6 h, individual animals 1-5) was 4.60 ng/mL and 10.0 ng/mL and 17.0 ng/mL and 4.51 ng/mL and 3.93 ng/mL. For the same compound, the “Plasma concentration” value (male monkey, oral tapentadol valine carbamate 10 mg tapentadol free base equiv/kg, 6 h, mean) was 8.01 ng/mL, the “Plasma concentration” value (male monkey, oral tapentadol valine carbamate 10 mg tapentadol free base equiv/kg, 9 h, individual animals 1-5) was 1.93 ng/mL and 7.34 ng/mL and 5.61 ng/mL and 1.11 ng/mL and 1.86 ng/mL and the “Plasma concentration” value (male monkey, oral tapentadol valine carbamate 10 mg tapentadol free base equiv/kg, 9 h, mean) was 3.57 ng/mL. For the same compound, the “Plasma concentration” value (male monkey, oral tapentadol valine carbamate 10 mg tapentadol free base equiv/kg, 12 h, individual animals 1-5) was 0.741 ng/mL and 2.97 ng/mL and 3.04 ng/mL and 0.716 ng/mL and 0.929 ng/mL, the “Plasma concentration” value (male monkey, oral tapentadol valine carbamate 10 mg tapentadol free base equiv/kg, 12 h, mean) was 1.68 ng/mL and the concentration at 0.083 h (male, cynomolgus monkey, plasma, iv, 0.5 mg tapentadol free base equiv/kg, male monkey, i.v. tapentadol valine carbamate 0.5 mg tapentadol free base equiv/kg, 0.083 h, mean) was 969 ng/mL. For the same compound, the concentration at 0.25 h (male, cynomolgus monkey, plasma, iv, 0.5 mg tapentadol free base equiv/kg, male monkey, i.v. tapentadol valine carbamate 0.5 mg tapentadol free base equiv/kg, 0.25 h, mean) was 711 ng/mL, the concentration at 0.5 h (male, cynomolgus monkey, plasma, iv, 0.5 mg tapentadol free base equiv/kg, male monkey, i.v. tapentadol valine carbamate 0.5 mg tapentadol free base equiv/kg, 0.5 h, mean) was 471 ng/mL and the concentration at 1 h (male, cynomolgus monkey, plasma, iv, 0.5 mg tapentadol free base equiv/kg, male monkey, i.v. tapentadol valine carbamate 0.5 mg tapentadol free base equiv/kg, 1 h, mean) was 255 ng/mL. It also gave a concentration at 2 h (male, cynomolgus monkey, plasma, iv, 0.5 mg tapentadol free base equiv/kg, male monkey, i.v. tapentadol valine carbamate 0.5 mg tapentadol free base equiv/kg, 2 h, mean) of 98.6 ng/mL, a concentration at 4 h (male, cynomolgus monkey, plasma, iv, 0.5 mg tapentadol free base equiv/kg, male monkey, i.v. tapentadol valine carbamate 0.5 mg tapentadol free base equiv/kg, 4 h, mean) of 16 ng/mL and a concentration at 6 h (male, cynomolgus monkey, plasma, iv, 0.5 mg tapentadol free base equiv/kg, male monkey, i.v. tapentadol valine carbamate 0.5 mg tapentadol free base equiv/kg, 6 h, mean) of 4.39 ng/mL. For the same compound, the concentration at 9 h (male, cynomolgus monkey, plasma, iv, 0.5 mg tapentadol free base equiv/kg, male monkey, i.v. tapentadol valine carbamate 0.5 mg tapentadol free base equiv/kg, 9 h, mean) was 1.25 ng/mL, the half-life (male, cynomolgus monkey, plasma, iv, 0.5 mg/kg, male monkey, i.v. tapentadol valine carbamate 0.5 mg tapentadol free base equiv/kg, calculated as ln2/mean k) was 1.4 h and the AUC [3] was 680 ng·h/mL. It also gave an AUC(0-t) [3] of 678 ng·h/mL, a clearance [3] of 12.2 mL/min/kg and a Vd [3] of 0.75 L/kg. It also gave a half-life [3] of 1.5 h, an AUC [4] of 883 ng·h/mL and a C0 [4] of 1190 ng/mL. For the same compound, the AUC(0-t) [4] was 880 ng·h/mL, the clearance [4] was 9.63 mL/min/kg and the Vd [4] was 0.564 L/kg. The half-life (male, cynomolgus monkey, plasma, po, 1 mg tapentadol free base equiv/kg, male monkey, oral tapentadol valine carbamate 1 mg tapentadol free base equiv/kg, calculated as ln2/mean k) was 2.47 h, the half-life [5] was 2.28 h and the AUC [6] was 316 ng·h/mL. The Cmax [6] was 164 ng/mL, the AUC(0-t) [6] was 309 ng·h/mL and the Tmax [5] was 0.5 h. For the same compound, the Tmax (male, cynomolgus monkey, plasma, po, 1 mg tapentadol free base equiv/kg, male monkey, oral tapentadol valine carbamate 1 mg tapentadol free base equiv/kg, median) was 0.5 h and the “prodrug absorbed after oral administration” value (monkey, comparison of AUC after oral (Table 13) and intravenous dosing (Table 12)) was “at least 36%”.
